Experimental data from patent US9833454B2, “Difluoromethoxy compound with low bioactivation potential for the reduction of beta-amyloid production” (BRISTOL-MYERS SQUIBB COMPANY, priority 2014, dated 2017).
Values joined by “and” are separate entries in the source; they are usually repeats but may differ in a detail not shown here. Identical values can stand only once.

Molecular target: CYP2D6 (Homo sapiens, UniProt P10635)
Assay: biochemical

Sequence of CYP2D6 (P10635 whole entry): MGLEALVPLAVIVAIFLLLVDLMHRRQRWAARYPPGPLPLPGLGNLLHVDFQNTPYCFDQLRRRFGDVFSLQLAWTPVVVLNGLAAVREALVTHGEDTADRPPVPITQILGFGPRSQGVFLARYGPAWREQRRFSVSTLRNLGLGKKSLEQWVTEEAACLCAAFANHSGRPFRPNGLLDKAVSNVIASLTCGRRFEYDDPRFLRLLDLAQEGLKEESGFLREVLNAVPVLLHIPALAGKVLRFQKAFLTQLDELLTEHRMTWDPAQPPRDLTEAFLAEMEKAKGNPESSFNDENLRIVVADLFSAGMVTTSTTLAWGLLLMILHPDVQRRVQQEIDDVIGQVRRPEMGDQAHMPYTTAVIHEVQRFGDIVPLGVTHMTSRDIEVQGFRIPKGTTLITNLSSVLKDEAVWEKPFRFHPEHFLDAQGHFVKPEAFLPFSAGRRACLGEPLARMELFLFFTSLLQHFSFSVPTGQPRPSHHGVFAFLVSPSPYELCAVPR

IC50: 1320 nM and 440 nM
Structure (SMILES): COCC(=O)O[C@]1(CCN(C)CCCc2nc3ccccc3[nH]2)CCc2cc(F)ccc2[C@@H]1C(C)C [Mibefradil, reference compound]
